Measured values: patent publication US4943595A, “Perfluorochemicals and process for preparing the same” (The Green Cross Corporation, priority 1984, dated 1990)
Where two headings read alike, the source gives them in different places.

Assays:
[1] = Stability of emulsion stored at 4° C. (change of particle size); assay type: physicochemical; set-up: key: Excellent: Particle size is hardly increased one month after the storage.; Good: The increase of the particle size is at most 50% or liquid-particle separation is observed one month after the storage; conditions: one month at 4° C., emulsion sterilized 100° C. 30 min
Description: (§1) According to the above preparation method of the emulsion, the emulsions of various perfluoroalkyl ether derivatives are prepared. Nine parts by volume of the resulting emulsion were diluted with 1 part by volume of an electrolyte solution of the following composition:
(§2) The emulsions were sterized by heating at 100° C. for 30 minutes in a nitrogen atmosphere. The emulsions were used for the following test.
The emulsions were stored at 4° C. and the stability was measured in terms of the change of the particle size by the following measures.
Good: The increase of the particle size is at most 50% or liquid-particle separation is observed one month after the storage.

wister male rats = assay: Acute toxicity after intravenous injection of emulsion, observed by dissection (pulmonary emphysema); assay type: in vivo; conditions: i.v., rat, one week after injection
Description: as §1, §2
The emulsions which had been made physiologically isotonic were injected intravenously to the wister male rats of 100 to 200 g. One week after the injection acute toxicity was observed by dissection, and evaluation was effected according to the following measures.
Toxic: Occurrence of pulmonary emphysema. LD50 : 2-4 g/kg
Non toxicic: No occurence of pulmonary emphysema. LD50 : above 20 g/kg

[2] = 37° C.; cited from earlier work
[3] = Elimination property: half reduction term in the body of the rat; assay type: in vivo
Description: as §1, §2
This property was measured by the half reduction term in the body of the rat, and evaluated as follows: […]

[4] = Vapor pressure of the perfluorochemical; conditions: 38° C.
[5] = comparison between perfluorochemicals; cited from earlier work

For `FC(F)(F)C(F)(F)C(F)(F)C(F)(F)OC(C(F)(F)F)(C(F)(F)F)C(F)(F)C(F)(F)C(F)(F)F` [drawing 61], the “Stability of Emulsion” value [1] was “Excellent” and the Toxicity (wister male rats) was “Non tox- ic”.

For `FC1(F)C(F)(F)C(F)(F)[C@]2(F)C(F)(F)C(F)(F)C(F)(F)C(F)(F)[C@@]2(F)C1(F)F` [trans isomer], the Vapor pressure [2] is given as 11.6 mmHg.

In the case of `FC(F)(F)C(F)(F)C(F)(F)OC(F)(F)C(F)(F)C(F)(F)C(F)(F)C(F)(F)C(F)(F)C(F)(F)F` [Example 18, Perfluoro-1-n-propoxyheptane], the “Stability of Emulsion” value [1] is reported as “good”, the Elimination property [3] is reported as “poort” and the Vapor pressure [4] is reported as 15-16 mmHg.

For `FC(F)(F)OC(F)(C(F)(F)F)C(F)(F)C(C(F)(F)F)(C(F)(F)C(F)(F)F)C(F)(F)C(F)(F)F` (stereo not drawn) [drawing 63], the “Stability of Emulsion” value [1] was “good”.

For `FC(F)(F)C(F)(F)OC(C(F)(F)F)(C(F)(C(F)(F)F)C(F)(F)F)C(F)(C(F)(F)F)C(F)(F)F`, the “Stability of Emulsion” value [1] was “excellent”.

With `FC(F)(F)C(F)(F)C(F)(F)OC(F)(C(F)(C(F)(F)F)C(F)(F)F)C(F)(C(F)(F)F)C(F)(F)F` [drawing 62] the “Stability of Emulsion” value [1] was “excellent” and the Elimination property [3] was “fair”.

For `FC1(F)C(F)(F)C(F)(F)[C@]2(F)C(F)(F)C(F)(F)C(F)(F)C(F)(F)[C@]2(F)C1(F)F` [perfluoro-cis-decalin], the Vapor pressure [2] is given as 10.1 mmHg and the “elimination rate (in words)” value [5] is given as “slightly higher elimination rate than the trans isomer”.
